In patent publication US20070128217A1 (priority 2003, published 2007):

Key:
[1] = system: antibodies in sera from SARS patients (sera 1a, 1b, 2, 6, 37, 62, London, SARS-yellow, SARS-green); format: binding, human; set-up: Binding of serum 6 to linear peptides of protein X1 of SARS-CoV Urbani / Binding of serum 37 to linear peptides of protein X1 of SARS-CoV Urbani / Binding of serum 6 to looped/cyclic peptide (PEPSCAN-ELISA) / Binding of serum 37 to looped/cyclic peptide (PEPSCAN-ELISA) / Binding of serum 37 to looped/cyclic peptides of protein X1 of SARS-CoV Urbani / Binding of serum 6 to linear peptides of protein X2 / Binding of serum 37 to linear peptides of protein X2 / Binding of serum 37 to looped/cyclic peptides of protein X2 of SARS-CoV Urbani / Binding of serum 6 to linear peptides of protein M of SARS-CoV Urbani / Binding of serum 37 to linear peptides of protein M of SARS-CoV Urbani / Binding of serum 6 to looped/cyclic peptides of protein M of SARS-CoV Urbani / Binding of serum 37 to looped/cyclic peptides of protein M of SARS-CoV Urbani / Binding of serum 6 to linear peptides of protein X3 of SARS-CoV Urbani / Binding of serum 37 to linear peptides of protein X3 of SARS-CoV Urbani / Binding of serum 37 to looped/cyclic peptides of protein X3 of SARS-CoV Urbani / Binding of serum 6 to linear peptides of protein X4 of SARS-CoV Urbani / Binding of serum 37 to linear peptides of protein X4 of SARS-CoV Urbani / Binding of serum 37 to looped/cyclic peptides of protein X4 of SARS-CoV Urbani / Binding of serum 6 to linear peptides of protein X5 of SARS-CoV Urbani / Binding of serum 37 to linear peptides of protein X5 of SARS-CoV Urbani / Binding of serum 37 to looped/cyclic peptides of protein X5 of SARS-CoV Urbani / Binding of serum 6 to linear peptides of protein N of SARS-CoV Urbani / Binding of serum 37 to linear peptides of protein N of SARS-CoV Urbani / Binding of serum 6 to linear peptide (PEPSCAN-ELISA) / Binding of serum 1a to looped/cyclic peptides of protein N of SARS-CoV Urbani / Binding of serum 1b to looped/cyclic peptides of protein N of SARS-CoV Urbani / Binding of serum 2 to looped/cyclic peptides of protein N of SARS-CoV Urbani / Binding of serum 6 to looped/cyclic peptides of protein N of SARS-CoV Urbani / Binding of serum 37 to looped/cyclic peptides of protein N of SARS-CoV Urbani / Binding of serum 62 to looped/cyclic peptides of protein N of SARS-CoV Urbani / Binding of serum London to looped/cyclic peptides of protein N of SARS-CoV Urbani / Binding of serum SARS-green to looped/cyclic peptides of protein N of SARS-CoV Urbani: unit not given here
[2] = system: rabbit serum obtained by immunizing a rabbit with the SARS-CoV strain Frankfurt 1; format: binding; set-up: Binding of a rabbit serum to linear peptides / Binding of a rabbit serum to looped peptides / Rabbit serum linear peptides / Rabbit serum looped peptides / Binding of a rabbit serum to linear peptides of protein N of SARS-CoV Urbani (Rabbit serum linear peptides) / Binding of a rabbit serum to looped/cyclic peptides of protein N of SARS-CoV Urbani (Rabbit serum looped peptides): unit not given here
[3] = system: control sera (pooled serum of ten healthy LUMC hospital workers; commercial negative donor pooled serum from the Dutch bloodbank); format: binding, human; set-up: Binding of Control serum LUMC to linear peptides / Binding of Control serum Blood-bank to linear peptides / Binding of Control serum LUMC to looped peptides / Binding of Control Serum Blood-Bank to Looped peptides / Binding of Control serum LUMC to linear peptides of the protein M of SARS-CoV Urbani / Binding of Control serum Blood-bank to linear peptides of the protein M of SARS-CoV Urbani / Binding of Control serum LUMC to looped peptides of the protein M of SARS-CoV Urbani / Binding of Control Serum Blood-Bank to Looped peptides of the protein M of SARS-CoV Urbani: unit not given here

## YTQSTALQELLIQQW
[1]
  Binding of serum 1a to linear peptides of protein X2: 0.6
  Binding of serum 1a to looped/cyclic peptides of protein X2 of SARS-CoV Urbani: 0.6
  Binding of serum 1b to linear peptides of protein X2: 0.5
  Binding of serum 1b to looped/cyclic peptides of protein X2 of SARS-CoV Urbani: 0.5
  Binding of serum 2 to linear peptides of protein X2: 0.4
  Binding of serum 2 to looped/cyclic peptides of protein X2 of SARS-CoV Urbani: 0.5
  Binding of serum 6 to linear peptides of protein X2: 0.4
  Binding of serum 6 to looped/cyclic peptides of protein X2 of SARS-CoV Urbani: 0.2
  Binding of serum 37 to linear peptides of protein X2: 0.5
  Binding of serum 37 to looped/cyclic peptides of protein X2 of SARS-CoV Urbani: 0.4
  Binding of serum 62 to linear peptides of protein X2: 0.6
  Binding of serum 62 to looped/cyclic peptides of protein X2 of SARS-CoV Urbani: 0.6
  Binding of serum London to linear peptides of protein X2: 0.5
  Binding of serum London to looped/cyclic peptides of protein X2 of SARS-CoV Urbani: 0.2
  Binding of serum SARS-green to linear peptides of protein X2: 0.6
  Binding of serum SARS-green to looped/cyclic peptides of protein X2 of SARS-CoV Urbani: 0.3
  Binding of serum SARS-yellow to linear peptides of protein X2: 0.6
  Binding of serum SARS-yellow to looped/cyclic peptides of protein X2 of SARS-CoV Urbani: 0.3
[2]
  Binding of a rabbit serum to linear peptides: 0.3
  Binding of a rabbit serum to looped peptides: 0.3
[3]
  Binding of Control Serum Blood-Bank to Looped peptides: 0.6
  Binding of Control serum Blood-bank to linear peptides: 0.5
  Binding of Control serum LUMC to linear peptides: 0.4
  Binding of Control serum LUMC to looped peptides: 0.6

## MKIILFLTLIVFTSC
[1]
  Binding of serum 1a to linear peptides of protein X4 of SARS-CoV Urbani: 0.6
  Binding of serum 1a to looped/cyclic peptides of protein X4 of SARS-CoV Urbani: 0.6
  Binding of serum 1b to linear peptides of protein X4 of SARS-CoV Urbani: 0.5
  Binding of serum 1b to looped/cyclic peptides of protein X4 of SARS-CoV Urbani: 0.0
  Binding of serum 2 to linear peptides of protein X4 of SARS-CoV Urbani: 0.4
  Binding of serum 2 to looped/cyclic peptides of protein X4 of SARS-CoV Urbani: 0.5
  Binding of serum 6 to linear peptides of protein X4 of SARS-CoV Urbani: 0.4
  Binding of serum 6 to looped/cyclic peptides of protein X4 of SARS-CoV Urbani: 0.5
  Binding of serum 37 to linear peptides of protein X4 of SARS-CoV Urbani: 0.7
  Binding of serum 37 to looped/cyclic peptides of protein X4 of SARS-CoV Urbani: 0.6
  Binding of serum 62 to linear peptides of protein X4 of SARS-CoV Urbani: 0.7
  Binding of serum 62 to looped/cyclic peptides of protein X4 of SARS-CoV Urbani: 0.5
  Binding of serum London to linear peptides of protein X4 of SARS-CoV Urbani: 0.7
  Binding of serum London to looped/cyclic peptides of protein X4 of SARS-CoV Urbani: 0.2
  Binding of serum SARS-green to linear peptides of protein X4 of SARS-CoV Urbani: 0.4
  Binding of serum SARS-green to looped/cyclic peptides of protein X4 of SARS-CoV Urbani: 0.3
  Binding of serum SARS-yellow to linear peptides of protein X4 of SARS-CoV Urbani: 0.5
  Binding of serum SARS-yellow to looped/cyclic peptides of protein X4 of SARS-CoV Urbani: 0.6
[2]
  Rabbit serum linear peptides: 0.7
  Rabbit serum looped peptides: 0.4
[3]
  Binding of Control Serum Blood-Bank to Looped peptides: 0.6
  Binding of Control serum Blood-bank to linear peptides: 0.6
  Binding of Control serum LUMC to linear peptides: 0.5
  Binding of Control serum LUMC to looped peptides: 0.7

## EVQQELYSPLFLIVA
[1]
  Binding of serum 1a to linear peptides of protein X4 of SARS-CoV Urbani: 0.7
  Binding of serum 1a to looped/cyclic peptides of protein X4 of SARS-CoV Urbani: 0.7
  Binding of serum 1b to linear peptides of protein X4 of SARS-CoV Urbani: 0.6
  Binding of serum 1b to looped/cyclic peptides of protein X4 of SARS-CoV Urbani: 0.6
  Binding of serum 2 to linear peptides of protein X4 of SARS-CoV Urbani: 0.4
  Binding of serum 2 to looped/cyclic peptides of protein X4 of SARS-CoV Urbani: 0.6
  Binding of serum 6 to linear peptides of protein X4 of SARS-CoV Urbani: 0.9
  Binding of serum 6 to looped/cyclic peptides of protein X4 of SARS-CoV Urbani: 0.5
  Binding of serum 37 to linear peptides of protein X4 of SARS-CoV Urbani: 0.8
  Binding of serum 37 to looped/cyclic peptides of protein X4 of SARS-CoV Urbani: 0.7
  Binding of serum 62 to linear peptides of protein X4 of SARS-CoV Urbani: 0.7
  Binding of serum 62 to looped/cyclic peptides of protein X4 of SARS-CoV Urbani: 0.6
  Binding of serum London to linear peptides of protein X4 of SARS-CoV Urbani: 1.0
  Binding of serum London to looped/cyclic peptides of protein X4 of SARS-CoV Urbani: 0.3
  Binding of serum SARS-green to linear peptides of protein X4 of SARS-CoV Urbani: 0.8
  Binding of serum SARS-green to looped/cyclic peptides of protein X4 of SARS-CoV Urbani: 0.3
  Binding of serum SARS-yellow to linear peptides of protein X4 of SARS-CoV Urbani: 0.6
  Binding of serum SARS-yellow to looped/cyclic peptides of protein X4 of SARS-CoV Urbani: 0.9
  Recognition of the peptide by sera of SARS-CoV infected individuals, and form (linear, looped/cyclic) in which it is recognized: recognized in looped/cyclic form
[2]
  Rabbit serum linear peptides: 0.5
  Rabbit serum looped peptides: 0.5
[3]
  Binding of Control Serum Blood-Bank to Looped peptides: 0.7
  Binding of Control serum Blood-bank to linear peptides: 0.5
  Binding of Control serum LUMC to linear peptides: 0.5
  Binding of Control serum LUMC to looped peptides: 0.8

## ALVFLILCFTIKRKT
[1]
  Binding of serum 1a to linear peptides of protein X4 of SARS-CoV Urbani: 0.7
  Binding of serum 1a to looped/cyclic peptides of protein X4 of SARS-CoV Urbani: 0.8
  Binding of serum 1b to linear peptides of protein X4 of SARS-CoV Urbani: 0.6
  Binding of serum 1b to looped/cyclic peptides of protein X4 of SARS-CoV Urbani: 0.5
  Binding of serum 2 to linear peptides of protein X4 of SARS-CoV Urbani: 0.7
  Binding of serum 2 to looped/cyclic peptides of protein X4 of SARS-CoV Urbani: 0.8
  Binding of serum 6 to linear peptides of protein X4 of SARS-CoV Urbani: 0.7
  Binding of serum 6 to looped/cyclic peptides of protein X4 of SARS-CoV Urbani: 0.9
  Binding of serum 37 to linear peptides of protein X4 of SARS-CoV Urbani: 0.7
  Binding of serum 37 to looped/cyclic peptides of protein X4 of SARS-CoV Urbani: 0.6
  Binding of serum 62 to linear peptides of protein X4 of SARS-CoV Urbani: 0.8
  Binding of serum 62 to looped/cyclic peptides of protein X4 of SARS-CoV Urbani: 0.7
  Binding of serum London to linear peptides of protein X4 of SARS-CoV Urbani: 0.8
  Binding of serum London to looped/cyclic peptides of protein X4 of SARS-CoV Urbani: 1.1
  Binding of serum SARS-green to linear peptides of protein X4 of SARS-CoV Urbani: 0.7
  Binding of serum SARS-green to looped/cyclic peptides of protein X4 of SARS-CoV Urbani: 0.5
  Binding of serum SARS-yellow to linear peptides of protein X4 of SARS-CoV Urbani: 0.4
  Binding of serum SARS-yellow to looped/cyclic peptides of protein X4 of SARS-CoV Urbani: 0.6
[2]
  Rabbit serum linear peptides: 0.6
  Rabbit serum looped peptides: 0.6
[3]
  Binding of Control Serum Blood-Bank to Looped peptides: 0.8
  Binding of Control serum Blood-bank to linear peptides: 0.8
  Binding of Control serum LUMC to linear peptides: 0.6
  Binding of Control serum LUMC to looped peptides: 0.7

## LLEQWNLVIGFLFLA
[1]
  Binding of serum 1a to linear peptides of protein M of SARS-CoV Urbani: 0.7
  Binding of serum 1a to looped/cyclic peptides of protein M of SARS-CoV Urbani: 0.5
  Binding of serum 1b to linear peptides of protein M of SARS-CoV Urbani: 0.6
  Binding of serum 1b to looped/cyclic peptides of protein M of SARS-CoV Urbani: 0.2
  Binding of serum 2 to linear peptides of protein M of SARS-CoV Urbani: 0.4
  Binding of serum 2 to looped/cyclic peptides of protein M of SARS-CoV Urbani: 0.4
  Binding of serum 6 to linear peptides of protein M of SARS-CoV Urbani: 0.2
  Binding of serum 6 to looped/cyclic peptides of protein M of SARS-CoV Urbani: 0.4
  Binding of serum 37 to linear peptides of protein M of SARS-CoV Urbani: 0.4
  Binding of serum 37 to looped/cyclic peptides of protein M of SARS-CoV Urbani: 0.4
  Binding of serum 62 to linear peptides of protein M of SARS-CoV Urbani: 0.4
  Binding of serum 62 to looped/cyclic peptides of protein M of SARS-CoV Urbani: 0.4
  Binding of serum London to linear peptides of protein M of SARS-CoV Urbani: 0.3
  Binding of serum London to looped/cyclic peptides of protein M of SARS-CoV Urbani: 0.2
  Binding of serum SARS-green to linear peptides of protein M of SARS-CoV Urbani: 0.3
  Binding of serum SARS-green to looped/cyclic peptides of protein M of SARS-CoV Urbani: 0.2
  Binding of serum SARS-yellow to linear peptides of protein M of SARS-CoV Urbani: 0.2
  Binding of serum SARS-yellow to looped/cyclic peptides of protein M of SARS-CoV Urbani: 0.4
[2]
  Rabbit serum linear peptides: 0.6
  Rabbit serum looped peptides: 0.0
[3]
  Binding of Control Serum Blood-Bank to Looped peptides of the protein M of SARS-CoV Urbani: 0.2
  Binding of Control serum Blood-bank to linear peptides of the protein M of SARS-CoV Urbani: 0.5
  Binding of Control serum LUMC to linear peptides of the protein M of SARS-CoV Urbani: 0.4
  Binding of Control serum LUMC to looped peptides of the protein M of SARS-CoV Urbani: 0.5
